Active and inactive are the calls of the source. No cut-off for these calls is given here.
Biological target: Human immunodeficiency virus type 1 protease (Human immunodeficiency virus 1) (UniProt Q72874)
Test: Tested in vitro for inhibition of HIV-1 protease at concentration of 10e-6 M; No activity

SMILES	inhibition
N[C@H](CCNC(=O)C1Cc2ccccc2CN1CC(O)CN1Cc2ccccc2CC1C(=O)NCC[C@H](N)C(=O)O)C(=O)O (some centres undefined)	inactive
CC(C)C(NC(=O)C1Cc2ccccc2CN1CC(O)CN1Cc2ccccc2CC1C(=O)NC(C(=O)NC(C)(C)C)C(C)C)C(=O)NC(C)(C)C (centres undefined)	inactive
CC(C)C(NC(=O)CN(Cc1ccccc1)CC(O)CN(CC(=O)NC(C(=O)NC(C)(C)C)C(C)C)Cc1ccccc1)C(=O)NC(C)(C)C (centres undefined)	inactive
CC(C)(C)NC(=O)C1Cc2ccccc2CN1CC(O)CN1Cc2ccccc2CC1C(=O)NC(C)(C)C (centres undefined)	inactive

Reference: ChEMBL document CHEMBL1127204, “Synthesis of 1,3-diamino-2-hydroxypropane derivatives as pseudosymmetric HIV protease inhibitors” (Bioorg Med Chem Lett, 1993)
